Tested on: PC3 cells
Test: NAMPT Cell Proliferation Assay
Type: cell-based
Details: Homo sapiens, PC-3, 120 h, 5 days incubation, cell viability by Cell Titer Glo
In short: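 Five-day CellTiter-Glo viability readout in PC3 cells grown in RPMI/10% heat-inactivated FBS. Compounds added after overnight attachment as a 10-fold dilution series, […]. Percent inhibition fitted to sigmoidal dose-response to derive IC50.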

| Structure (SMILES) | IC50 [nM] |
| --- | --- |
| O=C(Nc1ccc(OC2CCN(C(=O)C3CCCO3)CC2)cc1)C1CN(c2ccnnc2)C1 (stereo not drawn) [Example 302, 1-(pyridazin-4-yl)-N-(4-{[1-(tetrahydrofuran-2-ylcarbonyl)piperidin-4-yl]oxy}phenyl)azetidine-3-carboxamide] | 82.4 |
| O=C(Nc1ccc(OC2CCN(C(=O)c3cccs3)CC2)cc1)C1CN(c2ccnnc2)C1 [Example 303, 1-(pyridazin-4-yl)-N-(4-{[1-(thiophen-2-ylcarbonyl)piperidin-4-yl]oxy}phenyl)azetidine-3-carboxamide] | 58.6 |
| Cc1ccc(C(=O)N2CCC(Oc3ccc(NC(=O)C4CN(c5ccnnc5)C4)cc3)CC2)s1 [Example 304, N-[4-({1-[(5-methylthiophen-2-yl)carbonyl]piperidin-4-yl}oxy)phenyl]-1-(pyridazin-4-yl)azetidine-3-carboxamide] | 33.2 |
| O=C(Nc1ccc(OC2CCN(C(=O)Cc3cccc(C(F)(F)F)c3)CC2)cc1)C1CN(c2ccnnc2)C1 [Example 305, 1-(pyridazin-4-yl)-N-{4-[(1-{[3-(trifluoromethyl)phenyl]acetyl}piperidin-4-yl)oxy]phenyl}azetidine-3-carboxamide] | 102 |
| O=C(Nc1ccc(OC2CCN(C(=O)C3CCOCC3)CC2)cc1)C1CN(c2ccnnc2)C1 [Example 306, 1-(pyridazin-4-yl)-N-(4-{[1-(tetrahydro-2H-pyran-4-ylcarbonyl)piperidin-4-yl]oxy}phenyl)azetidine-3-carboxamide] | 34.7 |
| CC[C@H](C)C(=O)N1CCC(Oc2ccc(NC(=O)C3CN(c4ccnnc4)C3)cc2)CC1 [Example 307, N-[4-({1-[(2S)-2-methylbutanoyl]piperidin-4-yl}oxy)phenyl]-1-(pyridazin-4-yl)azetidine-3-carboxamide] | 20.8 |
| O=C(Nc1ccc(OC2CCN(C(=O)Cc3ccccc3F)CC2)cc1)C1CN(c2ccnnc2)C1 [Example 308, N-[4-({1-[(2-fluorophenyl)acetyl]piperidin-4-yl}oxy)phenyl]-1-(pyridazin-4-yl)azetidine-3-carboxamide] | 61.4 |
| CC(C)Cn1cc(-c2ccc(C(=O)NC3CN(c4cccnn4)C3)o2)cn1 [Example 309, 5-[1-(2-methylpropyl)-1H-pyrazol-4-yl]-N-[1-(pyridazin-3-yl)azetidin-3-yl]furan-2-carboxamide] | 8200 |
| CC(C)C(=O)N1CCC(c2ccc(NC(=O)[C@H]3CCN(c4cccnn4)C3)cc2)CC1 [Example 310, (3S)—N-{4-[1-(2-methylpropanoyl)piperidin-4-yl]phenyl}-1-(pyridazin-3-yl)pyrrolidine-3-carboxamide] | 16.1 |
| O=C(Nc1ccc(C2CCN(C(=O)c3ccccc3)CC2)cc1)[C@H]1CCN(c2cccnn2)C1 [Example 311, (3S)—N-[4-(1-benzoylpiperidin-4-yl)phenyl]-1-(pyridazin-3-yl)pyrrolidine-3-carboxamide] | 2.9 |
| O=C(Nc1ccc(C2CCN(C(=O)CC3CCOCC3)CC2)cc1)[C@H]1CCN(c2cccnn2)C1 [Example 312, (3S)-1-(pyridazin-3-yl)-N-{4-[1-(tetrahydro-2H-pyran-4-ylacetyl)piperidin-4-yl]phenyl}pyrrolidine-3-carboxamide] | 21.7 |
| CC(C)(C)C(=O)N1CCC(c2ccc(NC(=O)[C@H]3CCN(c4cccnn4)C3)cc2)CC1 [Example 313, (3S)—N-{4-[1-(2,2-dimethylpropanoyl)piperidin-4-yl]phenyl}-1-(pyridazin-3-yl)pyrrolidine-3-carboxamide] | 6.03 |
| CC(C)(C)OC(=O)N1CCC(c2ccc(C(=O)NC3CN(c4cccnn4)C3)cc2)CC1 [Example 314, tert-butyl 4-(4-{[1-(pyridazin-3-yl)azetidin-3-yl]carbamoyl}phenyl)piperidine-1-carboxylate] | 621 |
| CC(C)Cn1cc(-c2ccc(C(=O)NC3CN(c4cccnn4)C3)s2)cn1 [Example 315, 5-[1-(2-methylpropyl)-1H-pyrazol-4-yl]-N-[1-(pyridazin-3-yl)azetidin-3-yl]thiophene-2-carboxamide] | 86.8 |
| CC(=O)N1CCC(c2ccc(NC(=O)C3CN(c4cccnn4)C3)cc2)CC1 [Example 316, N-[4-(1-acetylpiperidin-4-yl)phenyl]-1-(pyridazin-3-yl)azetidine-3-carboxamide] | 3.12 |
| CCCC(=O)N1CCC(c2ccc(NC(=O)C3CN(c4cccnn4)C3)cc2)CC1 [Example 317, N-[4-(1-butanoylpiperidin-4-yl)phenyl]-1-(pyridazin-3-yl)azetidine-3-carboxamide] | 1.83 |
| CCCCC(=O)N1CCC(c2ccc(NC(=O)C3CN(c4cccnn4)C3)cc2)CC1 [Example 318, N-[4-(1-pentanoylpiperidin-4-yl)phenyl]-1-(pyridazin-3-yl)azetidine-3-carboxamide] | 2.72 |
| CCC(C)C(=O)N1CCC(c2ccc(NC(=O)C3CN(c4cccnn4)C3)cc2)CC1 (stereo not drawn) [Example 319, N-{4-[1-(2-methylbutanoyl)piperidin-4-yl]phenyl}-1-(pyridazin-3-yl)azetidine-3-carboxamide] | 1.24 |
| CC(C)CC(=O)N1CCC(c2ccc(NC(=O)C3CN(c4cccnn4)C3)cc2)CC1 [Example 320, N-{4-[1-(3-methylbutanoyl)piperidin-4-yl]phenyl}-1-(pyridazin-3-yl)azetidine-3-carboxamide] | 2.37 |
| CCCCCC(=O)N1CCC(c2ccc(NC(=O)C3CN(c4cccnn4)C3)cc2)CC1 [Example 321, N-[4-(1-hexanoylpiperidin-4-yl)phenyl]-1-(pyridazin-3-yl)azetidine-3-carboxamide] | 3.21 |
| CCCC(C)C(=O)N1CCC(c2ccc(NC(=O)C3CN(c4cccnn4)C3)cc2)CC1 (stereo not drawn) [Example 322, N-{4-[1-(2-methylpentanoyl)piperidin-4-yl]phenyl}-1-(pyridazin-3-yl)azetidine-3-carboxamide] | 2.14 |
| CCC(C)CC(=O)N1CCC(c2ccc(NC(=O)C3CN(c4cccnn4)C3)cc2)CC1 (stereo not drawn) [Example 323, N-{4-[1-(3-methylpentanoyl)piperidin-4-yl]phenyl}-1-(pyridazin-3-yl)azetidine-3-carboxamide] | 2.81 |
| CC(C)CCC(=O)N1CCC(c2ccc(NC(=O)C3CN(c4cccnn4)C3)cc2)CC1 [Example 324, N-{4-[1-(4-methylpentanoyl)piperidin-4-yl]phenyl}-1-(pyridazin-3-yl)azetidine-3-carboxamide] | 7.08 |
| CCC(C)(C)C(=O)N1CCC(c2ccc(NC(=O)C3CN(c4cccnn4)C3)cc2)CC1 [Example 325, N-{4-[1-(2,2-dimethylbutanoyl)piperidin-4-yl]phenyl}-1-(pyridazin-3-yl)azetidine-3-carboxamide] | 1.28 |
| CC(C)C(C)C(=O)N1CCC(c2ccc(NC(=O)C3CN(c4cccnn4)C3)cc2)CC1 (stereo not drawn) [Example 326, N-{4-[1-(2,3-dimethylbutanoyl)piperidin-4-yl]phenyl}-1-(pyridazin-3-yl)azetidine-3-carboxamide] | 5.77 |
| CC(C)(C)CC(=O)N1CCC(c2ccc(NC(=O)C3CN(c4cccnn4)C3)cc2)CC1 [Example 327, N-{4-[1-(3,3-dimethylbutanoyl)piperidin-4-yl]phenyl}-1-(pyridazin-3-yl)azetidine-3-carboxamide] | 1.23 |
| CCC(CC)C(=O)N1CCC(c2ccc(NC(=O)C3CN(c4cccnn4)C3)cc2)CC1 [Example 328, N-{4-[1-(2-ethylbutanoyl)piperidin-4-yl]phenyl}-1-(pyridazin-3-yl)azetidine-3-carboxamide] | 1.59 |

Source: patent publication US20130303509A1, “NAMPT INHIBITORS” (AbbVie Inc., priority 2012, published 2013)
